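Interpolation was linear, between the two tested concentrations surrounding the appropriate level; five concentrations were tested over 48 hours in 96-well plates. GI50 = concentration required for 50% inhibition of growth. The concentration for full growth arrest is given as TGI.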
Key:
Test in all cases: NCI tumour cell line growth inhibition, 48 h
NCI-H226 lung = tested on: NCI-H226 lung
U251 CNS = tested on: U251 CNS
HCC-2998 colon = tested on: HCC-2998 colon
CAKI-1 renal = tested on: CAKI-1 renal
EKVX NSCLC = tested on: EKVX NSCLC
IGROV1 ovarian = tested on: IGROV1 ovarian
SNB-19 CNS = tested on: SNB-19 CNS
A549 NSCLC = tested on: A549 NSCLC
RPMI-8226 leukemia = tested on: RPMI-8226 leukemia
A498 renal = tested on: A498 renal
HCT-116 colon = tested on: HCT-116 colon
M14 melanoma = tested on: M14 melanoma
TK-10 renal = tested on: TK-10 renal
NCI-H522 lung = tested on: NCI-H522 lung
SK-MEL-2 melanoma = tested on: SK-MEL-2 melanoma
MALME-3M melanoma = tested on: MALME-3M melanoma
NCI-H23 lung = tested on: NCI-H23 lung
OVCAR-8 ovarian = tested on: OVCAR-8 ovarian
HCT-15 colon = tested on: HCT-15 colon
CCRF-CEM leukemia = tested on: CCRF-CEM leukemia
DU-145 prostate = tested on: DU-145 prostate
SK-MEL-5 melanoma = tested on: SK-MEL-5 melanoma
MDA-MB-468 breast = tested on: MDA-MB-468 breast
HS 578T breast = tested on: HS 578T breast
OVCAR-5 ovarian = tested on: OVCAR-5 ovarian
SNB-75 CNS = tested on: SNB-75 CNS
SK-MEL-28 melanoma = tested on: SK-MEL-28 melanoma
OVCAR-3 ovarian = tested on: OVCAR-3 ovarian
NCI/ADR-RES ovarian = tested on: NCI/ADR-RES ovarian
SF-295 CNS = tested on: SF-295 CNS
KM12 colon = tested on: KM12 colon
MDA-MB-231 breast = tested on: MDA-MB-231 breast
COLO 205 colon = tested on: COLO 205 colon
RXF 393 renal = tested on: RXF 393 renal
SW-620 colon = tested on: SW-620 colon
UACC-62 melanoma = tested on: UACC-62 melanoma
UACC-257 melanoma = tested on: UACC-257 melanoma
SF-268 CNS = tested on: SF-268 CNS
786-0 renal = tested on: 786-0 renal
SF-539 CNS = tested on: SF-539 CNS
HT29 colon = tested on: HT29 colon
MDA-MB-435 = tested on: MDA-MB-435
HL-60(TB) leukemia = tested on: HL-60(TB) leukemia
OVCAR-4 ovarian = tested on: OVCAR-4 ovarian
MCF7 breast = tested on: MCF7 breast
LOX IMVI melanoma = tested on: LOX IMVI melanoma
SK-OV-3 ovarian = tested on: SK-OV-3 ovarian
UO-31 renal = tested on: UO-31 renal
PC-3 prostate = tested on: PC-3 prostate
ACHN renal = tested on: ACHN renal
HOP-92 NSCLC = tested on: HOP-92 NSCLC
BT-549 breast = tested on: BT-549 breast
SN12C renal = tested on: SN12C renal
T-47D breast = tested on: T-47D breast
HOP-62 NSCLC = tested on: HOP-62 NSCLC
NCI-H460 lung = tested on: NCI-H460 lung

COc1cc2oc(-c3cccc(C(=O)Nc4ccc(Cl)cc4)c3)cc(=O)c2c(OCCN)c1OC was tested, and the GI50 (NCI-H226 lung) was 13.4 µM, the TGI (NCI-H226 lung) was 30.3 µM and the GI50 (U251 CNS) was 1.79 µM. It also gave a TGI (U251 CNS) of 3.27 µM, a GI50 (HCC-2998 colon) of 2.37 µM and a TGI (HCC-2998 colon) of 6.58 µM. The GI50 (CAKI-1 renal) was 11.2 µM, the TGI (CAKI-1 renal) was 23.6 µM and the GI50 (EKVX NSCLC) was 5.66 µM. The TGI (EKVX NSCLC) was 18.6 µM, the GI50 (IGROV1 ovarian) was 4.18 µM and the TGI (IGROV1 ovarian) was 18.1 µM. The GI50 (SNB-19 CNS) was 4.02 µM, the TGI (SNB-19 CNS) was 13.9 µM and the GI50 (A549 NSCLC) was 4.06 µM. For the same compound, the TGI (A549 NSCLC) was 20.7 µM, the GI50 (RPMI-8226 leukemia) was 2.3 µM and the TGI (RPMI-8226 leukemia) was 5.5 µM. The GI50 (A498 renal) was 20.7 µM, the TGI (A498 renal) was 40.4 µM and the GI50 (HCT-116 colon) was 2.39 µM. It also gave a TGI (HCT-116 colon) of 5.84 µM, a GI50 (M14 melanoma) of 2.02 µM and a TGI (M14 melanoma) of 4 µM. For the same compound, the GI50 (TK-10 renal) was 7.19 µM, the TGI (TK-10 renal) was 21.8 µM and the GI50 (NCI-H522 lung) was 4.24 µM. It also gave a TGI (NCI-H522 lung) of 19.8 µM, a GI50 (SK-MEL-2 melanoma) of 4.02 µM and a TGI (SK-MEL-2 melanoma) of 16.2 µM. The GI50 (MALME-3M melanoma) was 1.8 µM, the TGI (MALME-3M melanoma) was 3.35 µM and the GI50 (NCI-H23 lung) was 6.22 µM. It also gave a TGI (NCI-H23 lung) of 19 µM, a GI50 (OVCAR-8 ovarian) of 4.09 µM and a TGI (OVCAR-8 ovarian) of 19.4 µM. It also gave a GI50 (HCT-15 colon) of 2.82 µM, a TGI (HCT-15 colon) of 8.51 µM and a GI50 (CCRF-CEM leukemia) of 2.16 µM. The TGI (CCRF-CEM leukemia) was 4.84 µM, the GI50 (DU-145 prostate) was 5.98 µM and the TGI (DU-145 prostate) was 18.3 µM. For the same compound, the GI50 (SK-MEL-5 melanoma) was 1.72 µM, the TGI (SK-MEL-5 melanoma) was 3.33 µM and the GI50 (MDA-MB-468 breast) was 1.52 µM. It also gave a TGI (MDA-MB-468 breast) of 3.03 µM, a GI50 (HS 578T breast) of 5.21 µM and a TGI (HS 578T breast) of 25.3 µM. The GI50 (OVCAR-5 ovarian) was 5.14 µM, the TGI (OVCAR-5 ovarian) was 18 µM and the GI50 (SNB-75 CNS) was 10.1 µM. The TGI (SNB-75 CNS) was 24.1 µM, the GI50 (SK-MEL-28 melanoma) was 1.64 µM and the TGI (SK-MEL-28 melanoma) was 3.03 µM. The GI50 (OVCAR-3 ovarian) was 3.77 µM, the TGI (OVCAR-3 ovarian) was 11.7 µM and the GI50 (NCI/ADR-RES ovarian) was 13.6 µM. The TGI (NCI/ADR-RES ovarian) was 30.9 µM, the GI50 (SF-295 CNS) was 1.8 µM and the TGI (SF-295 CNS) was 3.69 µM. The GI50 (KM12 colon) was 6.84 µM, the TGI (KM12 colon) was 23.9 µM and the GI50 (MDA-MB-231 breast) was 2.63 µM. For the same compound, the TGI (MDA-MB-231 breast) was 7.92 µM, the GI50 (COLO 205 colon) was 3.03 µM and the TGI (COLO 205 colon) was 12.6 µM. The GI50 (RXF 393 renal) was 3.23 µM, the TGI (RXF 393 renal) was 12.7 µM and the GI50 (SW-620 colon) was 1.85 µM. The TGI (SW-620 colon) was 3.46 µM, the GI50 (UACC-62 melanoma) was 9.27 µM and the TGI (UACC-62 melanoma) was 22 µM. The GI50 (UACC-257 melanoma) was 1.73 µM, the TGI (UACC-257 melanoma) was 3.41 µM and the GI50 (SF-268 CNS) was 11.8 µM. For the same compound, the TGI (SF-268 CNS) was 29.7 µM, the GI50 (786-0 renal) was 2.04 µM and the TGI (786-0 renal) was 4.14 µM. For the same compound, the GI50 (SF-539 CNS) was 3.13 µM, the TGI (SF-539 CNS) was 10.2 µM and the GI50 (HT29 colon) was 2.28 µM. The TGI (HT29 colon) was 5.62 µM, the GI50 (MDA-MB-435) was 1.82 µM and the TGI (MDA-MB-435) was 3.65 µM. For the same compound, the GI50 (HL-60(TB) leukemia) was 2.38 µM, the TGI (HL-60(TB) leukemia) was 5.9 µM and the GI50 (OVCAR-4 ovarian) was 4.38 µM. The TGI (OVCAR-4 ovarian) was 16.8 µM, the GI50 (MCF7 breast) was 1.66 µM and the TGI (MCF7 breast) was 3.14 µM. For the same compound, the GI50 (LOX IMVI melanoma) was 1.48 µM, the TGI (LOX IMVI melanoma) was 2.8 µM and the GI50 (SK-OV-3 ovarian) was 11.8 µM. The TGI (SK-OV-3 ovarian) was 31.9 µM, the GI50 (UO-31 renal) was 13 µM and the TGI (UO-31 renal) was 25.7 µM. For the same compound, the GI50 (PC-3 prostate) was 2.89 µM, the TGI (PC-3 prostate) was 19.8 µM and the GI50 (ACHN renal) was 10.6 µM. It also gave a TGI (ACHN renal) of 22.4 µM, a GI50 (HOP-92 NSCLC) of 2.09 µM and a TGI (HOP-92 NSCLC) of 16.5 µM. It also gave a GI50 (BT-549 breast) of 6.3 µM, a TGI (BT-549 breast) of 25.7 µM and a GI50 (SN12C renal) of 6.12 µM. For the same compound, the TGI (SN12C renal) was 19 µM, the GI50 (T-47D breast) was 3.74 µM and the TGI (T-47D breast) was 23.4 µM. The GI50 (HOP-62 NSCLC) was 1.82 µM, the TGI (HOP-62 NSCLC) was 4.19 µM and the GI50 (NCI-H460 lung) was 3.17 µM. For the same compound, the TGI (NCI-H460 lung) was 10.5 µM.

From PubChem BioAssay (NCI)
